In PMC7377239, “Cardiovascular Effects of Polychlorinated Biphenyls and Their Major Metabolites” (Environmental Health Perspectives, 2020):
Like-named read-outs stand apart in the source and are kept apart here.

Columns and labels:
[1] = test system: iCell endothelial cells (human iPSC-derived ECs); assay: High-content imaging cytotoxicity in iCell endothelial cells, 24 h; assay type: cell-based; conditions: Homo sapiens, Endothelial cell, endothelial cells (endo), 24 hr
Description: The culture conditions of iCell®-endothelial cells were as reported elsewhere ([Iwata et al. 2017]). Briefly, T75 flasks were coated with a fibronectin solution ( 3 μg/cm^2 ) followed by incubation for 1–2 h. Cells were thawed for 3 min in a 37°C water bath. Thawed cells were added to maintenance medium made of VascuLife VEGF Medium Complete Kit, excluding the supplied FBS, and iCell® Endothelial Cells Medium Supplement. The final formulation of the maintenance medium is detailed in ([Iwata et al. 2017]). The aliquoted fibronectin solution was aspirated from the T75 flasks, and cells were seeded at 1.0×10^4 cells/cm^2 . Cells were maintained at 37°C and 5% CO2 with media changes occurring every 2 d and passaged every 3–4 d using TrypLE™ Express. All experiments were conducted on cells between passages 1 and 5.
Cytotoxicity was assessed in parallel experiments. For iCell®-endothelial cells, 384-well plates were coated with a 30μg/mL fibronectin solution ( 10μL/well ) and incubated for 2 h at RT. iCell®-endothelial cells were dissociated with TrypLE™ Express and prepared into a solution to achieve 750 cells per well and 50μL of total volume. The fibronectin solution was removed from the 384-well plate, and cells were plated. For HUVECs, similar dissociation and the same cell density were used for plating with the exclusion of the fibronectin solution. Cells were incubated at 37°C and 5% CO2 until a monolayer was formed, typically 3–5 d. 2×PCB plates were created with the requisite maintenance medium. Before treatment, the medium in the wells was exchanged to 25μL/well of fresh maintenance medium. 2×PCB chemical solutions ( […] ) were added. After 24 h incubation at 37°C and 5% CO2 , cells were stained with Hoechst 33342, MitoTracker™ Orange, and calcein AM for 20 min before replacing the staining media with FluoroBright DMEM. Cell culture plates were imaged using the ImageXpress® Micro Confocal high-content imaging system (Molecular Devices). Images were acquired at 10× magnification with DAPI, TRITC, or FITC filter (Hoechst 33342, MitoTracker™, or calcein AM, respectively). The multiwavelength cell scoring applications module in MetaXpress™ (Molecular Devices) was used to analyze the images.
(§1) Phenotypic responses were quantitatively assessed using concentration–response modeling as detailed elsewhere ([Sirenko et al. 2017]). Briefly, phenotypic readouts were normalized to vehicle controls and fit to a four-parameter logistic model in R studio software (version 3.1.1; R Development Core Team). Following EPA guidance on dose–response modeling, a cutoff of one standard deviation across means of vehicle control (i.e., 0.5% vol/vol DMSO in cell culture media) wells was applied to determine the point-of-departure (POD) values ([U.S. EPA 2012]). In the absence of a concentration–response, the highest tested concentration (i.e., 100μM ) was assigned as “no observable adverse effect level.” The concentration–response assessment R script, as well as templates for vehicle and concentration–response data, are available as a supplement to Sirenko et al. ([2017]). The ability of physicochemical properties to predict differences in PODs were evaluated by multiregression and mixed-effects modeling using R.

HUVECs = assay: Tube formation (tubulogenesis) assay in HUVECs, 18 h; assay type: cell-based, human; conditions: Homo sapiens, HUVEC, 18 h, HUVEC
Description: Similar to the cultivation of iCell®-endothelial cells, HUVEC maintenance and experimentation are detailed elsewhere ([Iwata et al. 2017]). Briefly, HUVECs were thawed, seeded, and grown in T75 tissue culture flasks in Medium 199 with EGM™-2 BulletKits™. HUVECs were incubated at regular cell culture conditions, 37°C and 5% CO2 , and passaged every 2–3 d using TrypLE™ Express. To ensure adequate endothelial function, experiments were performed with cells between passages 1 and 5.
Tube formation assays were performed on Geltrex™ LDEV-free reduced growth factor basement membrane using both iCell®-endothelial cells and HUVECs in 384-well format exactly as detailed in Iwata et al. ([2017]). Negative controls included media-only and vehicle control (i.e., 0.5% vol/vol DMSO in cell culture media) wells. Positive assay controls were consistent with previously published reports ([Iwata et al. 2017]) and included TAB ( 50μM ) as a cytotoxic control, and nocodazole ( 0.01–1μM ), suramin ( 0.5–50μM ), histamine ( 0.1–100μM ), and chloroquine ( 1–500μM ) as chemicals associated with specific effects on ECs. Each test chemical was screened in triplicate for each concentration. Briefly, for iCell®-endothelial cells, starvation media consisted of VascuLife® basal medium with 4 mM L-glutamine LifeFactor and 0.1% iCell®-endothelial cells medium supplement. To counter dilution effects, a 2× concentration of the HUVEC maintenance medium supplemented with additional VEGF was created (EGM™-2 BulletKits™ at 2× concentration; also the VEGF component was replaced with 12.5 ng/mL VEGF). Geltrex™ LDEV-free reduced growth factor basement membrane was thawed overnight and dispensed into 384-well plates ( 10μL/well ) with tapping and rotating to evenly coat. The plates were incubated for 1 h in a cell culture incubator at 37°C and 5% CO2 . A 2× PCB plate (containing all of the PCBs and metabolites in dose–response) was prepared in basal media and added, 25μL per well, to the Geltrex™ coated plates. On separate plates, cells were seeded 7,500 (iPSC- ECs) or 3,500 (HUVEC) cells/well. Cells were exposed to chemicals overnight at 37°C and 5% CO2 and stained with 3× concentration of calcein AM ( 25μL /well, 6μmol/L ) for 15 min before imaging. Images were captured at 4× magnification with the FITC filter (calcein AM). Images were analyzed with the angiogenesis module software within MetaXpress™ (Molecular Devices).
as §1

## Oc1ccc(O)c(-c2ccc(Cl)cc2)c1 [2',5'-diOH-PCB 3, 4-Chloro-2′,5′-dihydroxybiphenyl]
[1]; cyto, read-out: POD endo.cyto.24hr
  minimal effective concentration: 6.71 µM
[1]; mito, read-out: POD endo.mito.24hr
  minimal effective concentration: 6.71 µM
[1]; mitoint, read-out: POD endo.mitoint.24hr
  minimal effective concentration: 44.6 µM
[1]; nma, read-out: POD endo.nma.24hr
  minimal effective concentration: 13.7 µM
[1]; tc, read-out: POD endo.tc.24hr
  minimal effective concentration: 5.78 µM
HUVECs; tube formation mtl, read-out: POD huvec.mtl.18hr
  minimal effective concentration: 1.26 µM
HUVECs; tube formation tlps, read-out: POD huvec.tlps.18hr
  minimal effective concentration: 1.55 µM
HUVECs; tube formation tta, read-out: POD huvec.tta.18hr
  minimal effective concentration: 1.39 µM
HUVECs; tube formation ttl, read-out: POD huvec.ttl.18hr
  minimal effective concentration: 1.23 µM
